Values of other authors as cited in patent US7842720B2, “Anticancer and antiprotozoal dihydroartemisinene and dihydroartemisitene dimers with desirable chemical functionalities” (Elsohly Laboratories, Incorporated, priority 2004, dated 2010).

Columns and labels:
[1] = test system: chloroquine-sensitive and chloroquine-resistant strains of Plasmodium falciparum
malaria = conditions: comparison among artemisinin derivatives

C[C@@H]1CC[C@H]2[C@@H](C)C(=O)O[C@@H]3O[C@@]4(C)CC[C@@H]1[C@]32OO4 [artemisinin]
anti-malarial activity [1]: anti-malarial activity

C[C@H]1[C@H](OC(=O)CCC(=O)[O-])O[C@@H]2O[C@@]3(C)CC[C@H]4[C@H](C)CC[C@@H]1[C@@]24OO3.[Na+] [sodium artesunate]
anti-malarial activity relative to comparator (malaria): more activity
